{"source": "patent US10322143B2", "about": "“Inhibitors of ADAMTS4 or ADAMTS5 for use in preventing or treating cardiac remodeling and chronic heart failure” (Universitetet i Oslo, priority 2013, dated 2019)", "tested_on": "versican", "test": "Versican DPEEAE fragments (immunoblotting) in MI rats", "type": "in vivo, rat", "conditions": "PPS-treatment", "experimental": "At day 0 to 3 (median 2) after surgery, infarct size was quantified by echocardiography using the Vevo2100 system (Visualsonics Inc, Canada) and magnetic resonance imaging (MRi) using a 9.4 T/210 mm/ASR horizontal bore magnet (Agilent Technologies, Inc., USA). Initially, echocardiography was performed to select moderate to large infarcts ranging approximately 40 to 50%. Thereafter, infarct sizes were exactly measured by late-enhancement gadolinium MRi analyses (Bohl S., et al. American Journal of Physiology, 2009; 296 (4): H1200-H1208) and stratified into small infarcts (stratum 1: <43%, stratum 2: 43-48%), and large infarcts (stratum 3: 48-53%, stratum 4: >53%). The rats in each MI stratum and sham group were randomized to receive intervention or control treatment. The intervention group was treated with 6 mg/kg of sodium PPS (Interfarm AS, Norway), while the control group received vehicle (0.9% NaCl), both injected subcutaneously every third day starting from post-operative day 8-10.\nFractional protein lysates from myocardium of rats having undergone MI treated with PPS or vehicle were extracted as previously described in Example 1 and Didangelos et al. (Journal of Biological Chemistry 2012 Jun. 1; 287(23):19341-5). Protein concentrations were measured by western blotting as previously described in Example 1. […]"}
{"substance": "pentosan polysulfate [PPS]", "values": [{"measurement": "versican DPEEAE fragments", "result": "decreased"}]}
